Test results: PubChem BioAssay (NCI)
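Cells were grown in 96-well plates and exposed to each compound for 48 hours at five concentrations; endpoints were interpolated linearly between bracketing concentrations, or set to the highest concentration if not reached. GI50: concentration for 50% inhibition of growth. TGI is the concentration that stops growth completely.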

Columns and labels:
Assay in all cases: NCI anticancer screen, dose series, 48 h
SNB-75 CNS = tested on: SNB-75 CNS
SF-295 CNS = tested on: SF-295 CNS
BT-549 breast = tested on: BT-549 breast
CCRF-CEM leukemia = tested on: CCRF-CEM leukemia
TK-10 renal = tested on: TK-10 renal
786-0 renal = tested on: 786-0 renal
UACC-62 melanoma = tested on: UACC-62 melanoma
EKVX NSCLC = tested on: EKVX NSCLC
HOP-62 NSCLC = tested on: HOP-62 NSCLC

| SMILES | TGI (SNB-75 CNS) | TGI (SF-295 CNS) | TGI (BT-549 breast) | TGI (CCRF-CEM leukemia) | TGI (TK-10 renal) | TGI (786-0 renal) | TGI (UACC-62 melanoma) | TGI (EKVX NSCLC) | TGI (HOP-62 NSCLC) | GI50 (SNB-75 CNS) | GI50 (SF-295 CNS) | GI50 (BT-549 breast) | GI50 (CCRF-CEM leukemia) | GI50 (TK-10 renal) | GI50 (UACC-62 melanoma) | GI50 (EKVX NSCLC) | GI50 (HOP-62 NSCLC) |
| --- | --- | --- | --- | --- | --- | --- | --- | --- | --- | --- | --- | --- | --- | --- | --- | --- | --- |
| O=C1C(=Cc2ccccc2[N+](=O)[O-])N=C(c2ccccc2)N1n1c(-c2ccccc2)nc2ccccc2c1=O | > 100 µM | > 100 µM | > 100 µM | 78 µM | > 100 µM | > 100 µM | 46.6 µM | > 100 µM | > 100 µM |  |  |  |  |  |  |  |  |
| COc1ccc(C2=NNC(=O)c3ccccc3N2c2nc(-c3cccs3)nc3ccc(Br)cc23)cc1 | > 100 µM | 55.1 µM | > 100 µM | > 100 µM | 72.8 µM | 82 µM | > 100 µM | 91.5 µM | 49.5 µM |  |  |  |  |  |  |  |  |
| C=C1C(=O)O[C@H]2C3C(=C(C)CC[C@@H]12)C(=O)[C@@H]1OC31C (stereo partly drawn) | 6.57 µM | 27.3 µM | 4.6 µM | 1.31 µM | 4.4 µM | 3.26 µM | 5.69 µM | 33.2 µM | 28.6 µM |  |  |  |  |  |  |  |  |
| N#Cc1c(C#N)c(-c2ccccc2)n(/N=C\c2ccccc2)c1N | 74.2 µM | 65.8 µM | > 100 µM | 51.2 µM | > 100 µM | > 100 µM | 41.5 µM | 63.9 µM | > 100 µM |  |  |  |  |  |  |  |  |
| O=S(=O)(/N=C1/SC(=Nc2ccccc2)N(c2ccccc2)/C1=N/S(=O)(=O)c1ccccc1)c1ccccc1 | 62.1 µM |  | 79.2 µM | 55 µM | 91.8 µM | 41.1 µM | 31.9 µM | 76.8 µM | 80.4 µM |  |  |  |  |  |  |  |  |
| CN(C)C=Nc1nncc2n[nH]nc12 | > 100 µM | > 100 µM | > 100 µM | > 100 µM | > 100 µM | > 100 µM | > 100 µM | > 100 µM | > 100 µM |  |  |  |  |  |  |  |  |
| COC(=O)C1=C(C)NC2(C)OC(C)(O)C(C(C)=O)C12C(C)=O (stereo not drawn) | > 100 µM | > 100 µM | > 100 µM | > 100 µM | > 100 µM | > 100 µM | > 100 µM | > 100 µM | > 100 µM |  |  |  |  |  |  |  |  |
| CC(C)CC(NC(=O)C(COc1ccc([N+](=O)[O-])cc1)Cc1ccccc1)C(=O)Nc1ccccc1 (stereo not drawn) | 7.84 µM | 26.2 µM | 29.7 µM | > 100 µM | 50.3 µM | 29.5 µM | 30.9 µM | 91.4 µM |  |  |  |  |  |  |  |  |  |
| COc1cc(S(=O)(=O)N/N=C/c2cc(Br)c(O)c(OC)c2)c(OC)cc1NC(C)=O | > 100 µM | > 100 µM | > 100 µM | 56.5 µM | > 100 µM | 66.5 µM |  | > 100 µM | > 100 µM |  |  |  |  |  |  |  |  |
| CC(C)c1nccn1Cc1ccc(Cl)cc1Cl | 85 µM | > 100 µM | > 100 µM |  | > 100 µM | > 100 µM | > 100 µM | > 100 µM | > 100 µM |  |  |  |  |  |  |  |  |
| COc1cc2c(cc1O)CC[C@@H]1C2CC[C@@]2(C)C1CC[C@@H]2O (stereo partly drawn) | 22.1 µM | 16.5 µM | > 100 µM | 22.3 µM | > 94.1 µM | > 100 µM | > 100 µM | 44.6 µM | 45.8 µM |  |  |  |  |  |  |  |  |
| CSC1NNC2(C(=O)N1)c1ccccc1-c1ccccc12 (stereo not drawn) | > 10 µM | > 10 µM | > 10 µM | > 10 µM | > 10 µM | > 10 µM | > 10 µM | > 10 µM | > 10 µM |  |  |  |  |  |  |  |  |
| Cc1ccc([N+](=O)[O-])cc1NC(=O)C(=O)C1CCC2=C(Sc3ccccc3N2)C1=O (stereo not drawn) | > 100 µM | > 100 µM | > 100 µM | > 100 µM | > 100 µM | > 100 µM | > 100 µM | > 100 µM | > 100 µM |  |  |  |  |  |  |  |  |
| CCOC(=O)CCC(C(=O)OCC)n1nnc2cc(Nc3c(C)[n+]([O-])c4ccc(Cl)cc4[n+]3[O-])ccc21 (stereo not drawn) | > 100 µM | > 100 µM | > 100 µM | > 100 µM | > 100 µM | > 100 µM | > 100 µM | 97.1 µM | > 100 µM |  |  |  |  |  |  |  |  |
| CC1(C)O[C@@H](CP(c2cccc3ccccc23)c2cccc3ccccc23)[C@H](CP(c2cccc3ccccc23)c2cccc3ccccc23)O1 | > 100 µM | > 100 µM | > 100 µM | > 100 µM | > 100 µM | > 100 µM | > 100 µM | > 100 µM | > 100 µM |  |  |  |  |  |  |  |  |
| Cc1cccc2c1C(=O)[C@@](C)([C@]1(C)Nc3cccc(C)c3C1=O)N2 | > 100 µM | > 100 µM | > 100 µM | > 100 µM |  | > 100 µM | > 100 µM | > 100 µM | > 100 µM |  |  |  |  |  |  |  |  |
| N#Cc1c(-c2ccc(Cl)cc2)cc(-c2nc3ccccc3[nH]2)nc1N | 31.2 µM | 49.1 µM | 30.5 µM | 45.3 µM | 27.3 µM | 23.3 µM | 21.2 µM | 46.1 µM | 38.5 µM |  |  |  |  |  |  |  |  |

| SMILES | TGI (SNB-75 CNS) | TGI (SF-295 CNS) | TGI (BT-549 breast) | TGI (CCRF-CEM leukemia) | TGI (TK-10 renal) | TGI (786-0 renal) | TGI (UACC-62 melanoma) | TGI (EKVX NSCLC) | TGI (HOP-62 NSCLC) | GI50 (SNB-75 CNS) | GI50 (SF-295 CNS) | GI50 (BT-549 breast) | GI50 (CCRF-CEM leukemia) | GI50 (TK-10 renal) | GI50 (UACC-62 melanoma) | GI50 (EKVX NSCLC) | GI50 (HOP-62 NSCLC) |
| --- | --- | --- | --- | --- | --- | --- | --- | --- | --- | --- | --- | --- | --- | --- | --- | --- | --- |
| CC1(O)C(=O)OC2CC([C@]3(O)CCC4[C@@H]5C[C@H]6O[C@]67[C@@H](O)C=CC(=O)[C@]7(C)C5CC[C@@]43C)C1(C)C2 (stereo partly drawn) | > 94.1 µM | > 100 µM | 26.1 µM | 9.54 µM | 23.2 µM | 25.6 µM | 30.2 µM | > 100 µM | > 100 µM |  |  |  |  |  |  |  |  |
| CSc1ccccc1P(CCP(c1ccccc1SC)c1ccccc1SC)c1ccccc1SC | > 55.6 µM | > 95.7 µM | > 100 µM | 29.6 µM | > 100 µM | > 100 µM | > 100 µM | 97.7 µM | > 100 µM |  |  |  |  |  |  |  |  |
| CCOC(=O)N1C(=S)C(C(=O)OC)(C(=O)OC)N=C1C | > 100 µM | > 100 µM | > 100 µM | > 100 µM | > 100 µM | > 100 µM | > 100 µM | > 100 µM | > 100 µM |  |  |  |  |  |  |  |  |
| OC(O)(C(F)(F)F)C(F)(F)F | > 100 µM | > 100 µM | > 100 µM | > 100 µM | > 100 µM | > 100 µM | > 100 µM | > 100 µM | > 100 µM |  |  |  |  |  |  |  |  |
| O=C(NCc1cccnc1)C(=O)NCc1cccnc1 | > 100 µM | > 100 µM | > 100 µM |  | > 100 µM | > 100 µM | > 100 µM | > 100 µM | > 100 µM |  |  |  |  |  |  |  |  |
| Cn1c(=O)c2sc3cc4c(cc3c2c2ccccc21)sc1c(=O)n(C)c2ccccc2c14 | 93.6 µM | 42.6 µM | 46.4 µM | > 100 µM | > 100 µM | > 100 µM | > 100 µM | > 100 µM | 42.3 µM |  |  |  |  |  |  |  |  |
| CCC1CCC2c3c([nH]c4ccccc34)C3C(=O)N(c4ccc(OC)cc4)C(=O)C3C2C1 (stereo not drawn) | 41.1 µM | 68.1 µM | > 100 µM | 26.7 µM | 85.8 µM | > 100 µM | > 100 µM | > 100 µM | > 100 µM |  |  |  |  |  |  |  |  |
| COC(=O)C[C@H](CCSC)NC(=O)C[C@H](CCSC)NC(=O)C[C@H](CCSC)NC(=O)OC(C)(C)C | 29 µM | 51.4 µM | > 100 µM | > 100 µM | 42.2 µM | > 100 µM | 84.3 µM | > 100 µM | > 100 µM |  |  |  |  |  |  |  |  |
| COc1ccc(N2C(=O)/C(=C/c3ccc(N(CCC#N)CCC#N)cc3)N=C2c2ccccc2)c(OC)c1 | > 100 µM | > 100 µM | > 100 µM | 74.9 µM | > 100 µM | > 100 µM | > 100 µM | > 100 µM |  |  |  |  |  |  |  |  |  |
| COc1ccc(C2NC(=O)Nc3c2c(=O)oc2c3ccc3ccccc32)cc1 (stereo not drawn) | 75.8 µM | > 100 µM | > 100 µM | > 100 µM | > 100 µM | > 100 µM | > 100 µM | 96.8 µM | > 100 µM |  |  |  |  |  |  |  |  |
| CCCCCCCCC[n+]1cccc(C2C(C(=O)OCC)=C(C)NC(C)=C2C(=O)OCC)c1 | 11.6 µM | 33.9 µM | 4.51 µM | 6.85 µM | 25.8 µM | 26.9 µM | 3.54 µM | 27.8 µM | 28.7 µM |  |  |  |  |  |  |  |  |
| O=C(Nc1nc(C23CC4CC(CC(C4)C2)C3)cs1)c1cc2cc([N+](=O)[O-])ccc2oc1=O | 74.9 µM | > 100 µM | 40.4 µM | > 100 µM | > 100 µM | 45.2 µM |  | > 100 µM | > 100 µM |  |  |  |  |  |  |  |  |
| O=C(NCc1ccccc1)c1c(O)c2ccccc2[nH]c1=O | > 100 µM | > 100 µM | > 100 µM | > 100 µM | > 100 µM | > 100 µM |  | > 100 µM | > 100 µM |  |  |  |  |  |  |  |  |
| COC(=O)c1c(C#C[Si](C)(C)C)c(C#C[Si](C)(C)C)c(C#C[Si](C)(C)C)c(C#C[Si](C)(C)C)c1C(=O)OC | > 100 µM | > 100 µM | > 100 µM | > 100 µM | > 100 µM | > 100 µM | > 100 µM | > 100 µM |  |  |  |  |  |  |  |  |  |
| Cc1ccc2cnc(N)c(C#Cc3cncc(C(=O)Nc4ccc(CN5CCN(C)CC5)c(C(F)(F)F)c4)c3)c2c1 | 1.44 µM | 1.57 µM | 1.73 µM | 0.897 µM | 1.29 µM |  | 1.35 µM | 1.01 µM | 1.19 µM | 0.716 µM | 0.828 µM | 0.991 µM | 0.197 µM | 0.642 µM | 0.628 µM | 0.317 µM | 0.562 µM |
| COC(=O)C1[C@H](C(=O)OC)C1(Br)CBr (stereo partly drawn) | > 100 µM | > 100 µM | > 100 µM |  | > 100 µM | > 100 µM | > 100 µM | > 100 µM | > 100 µM |  |  |  |  |  |  |  |  |
